System: intact washed human platelets
Assay: [3H]PAF radioligand binding to intact washed human platelets after preincubation with plasma fractions (FIG. 1)
Protocol: Washed intact human thrombocytes are protected with plasma fractions from healthy volunteers (n=3, means, ±1 S.D.).
The thrombocytes are further preincubated with dialyzed, delipidated plasma proteins (0.36 mg/ml), with purified VLDL-fractions (0.9 mg/ml), with IDL (0.02 mg/ml), with HDL (0.5 mg/ml) or with delipidated HSA (0.25%).
Washed thrombocytes are tested in the presence of thioether-2-acyl-glycero-phosphatidylcholines (500 nM) compared to controls.

Substance | total [3H]PAF binding (500 nM unlabeled PAF, n=3, control 22±3 fmol) | total binding of [3H]PAF (500 nM Thio-GPC, washed thrombocytes, compared to controls)
alkyl-acetyl-sn-glycero-phosphocholines [PAF] | 6±2 fmol per 10^8 cells/ml | –
thioether-2-acyl-glycero-phosphatidylcholines [Thio-GPC] | – | do not at all change

Source: patent US20230240991A1, “PROTEOPHOSPHOLIPOSOMES HAVING HDL-TYPE VESICLES” (priority 2019, published 2023)
